IC50 data for 1 molecule are collected here from ChEMBL document CHEMBL1156672, “Selectivity criterion for pyrazolo[3,4-b]pyrid[az]ine derivatives as GSK-3 inhibitors: CoMFA and molecular docking studies” (Eur J Med Chem, 2008).

In this experiment the target is Cyclin-dependent kinase 2 (Homo sapiens, UniProt P24941).

One may read the IC50 as the midpoint of a concentration-inhibition curve. The low end stands for inhibition by little substance, the high end for a need for much substance. `O=C(NC1=NNC2=CC=CC21)C1CC1` (stereo unspecified) yielded a half-inhibitory concentration (IC50) of 5 nM.
